Reference: patent publication US10004222B2, “Small molecule ice recrystallization inhibitors and methods of use thereof” (THE UNIVERSITY OF OTTAWA, priority 2012, dated 2018)

How the values were obtained:
[1] = system: CD34+ cells (hematopoietic stem cells); assay: colony forming unit (CFU) assay after cryopreservation of umbilical cord blood; type: cell-based, human; settings: 27.5 mM IRI, 10% DMSO; post-thaw, 14 days in Methocult
Tf1-α cells = assay: cryopreservation of Tf1-α cells, viability/apoptosis by flow cytometry (7-AAD, Annexin V); type: cell-based; settings: 55 mM aryl-aldonamide, post-thaw
Protocol: Tf1-α cells were cultured to a final concentration of 2-3×10^6 cells/mL. Three million cells were transferred into cryovials and media were removed by aspiration after centrifugation at 1000 rpm for five minutes. 100 μL of RPMI media (10% FBS) supplemented with the cryopreservative of interest was added to the cryovial and vortexed. The cryovials were cooled at a rate of −1° C./min for 24 hours to −80° C. before being transferred to a liquid nitrogen dewar for storage until analysis.
Cryovials were thawed under fast thaw conditions (submerged in 37° C. water bath). The cells were then diluted to a concentration of 3×10^6 cells/mL with 1× Annexin V Binding Buffer and a cell count was obtained by hemacytometer (to obtain cell recovery). A 400 μL aliquot was transferred to a flow cytommetry tube. 10 μL of each Annexin V FITC (for apoptosis) and 7-AAD (for viability) dyes were added, the tube was vortexed and allowed to incubate in the dark for 15 minutes. The solution was diluted to 1 mL with 1× Annexin V Binding Buffer, vortexed and analyzed by flow cytommetry. […] With 2% DMSO, cell viability reached about 45%, and with 10% DMSO, cell viability reached around 78%.

| SMILES | BFU-E [1] | CFU-M [1] | Apoptosis (%) (Tf1-α cells; 0% DMSO) | Cell Viability (%) (Tf1-α cells; 0% DMSO) | Apoptosis (%) (Tf1-α cells; 2% DMSO) | Cell Viability (%) (Tf1-α cells; 2% DMSO) | Apoptosis (%) (Tf1-α cells; 10% DMSO) | Cell Viability (%) (Tf1-α cells; 10% DMSO) |
| --- | --- | --- | --- | --- | --- | --- | --- | --- |
| O=C(NCc1c(F)cccc1F)[C@H](O)[C@@H](O)[C@H](O)[C@H](O)CO [(1b), N-(2,6-difluorobenzyl)-D-gluconamide] | 28.5 | 2.0 | – | – | – | – | – | – |
| O=C(Nc1ccccc1F)[C@H](O)[C@@H](O)[C@H](O)[C@H](O)CO [(2a), N-(2-fluorophenyl)-D-gluconamide] | – | – | 0 | 1.27 | 1.5 | 81.28 | 3.37 | 92.83 |
| COc1ccc(NC(=O)[C@H](O)[C@@H](O)[C@H](O)[C@H](O)CO)cc1 [(3a), N-(4-methoxyphenyl)-D-gluconamide] | 35.0 | 3.5 | 0 | 0.16 | 1.38 | 74.33 | 2.73 | 95.33 |
